Drawing on PubChem BioAssay AID720570 (Broad Institute, 2013), this text covers AC35 for 80 molecules.

For the experiment, the system named is TC71 Ewing sarcoma viability, CellTiter-Glo ATP, 72 h. The experiment can be described thus: TC71 Ewing sarcoma cell killing, confirmation, luminescence, cherry-picked samples, retest (AID 720570).
In the case of `O=C(Nc1ccc(Br)cc1)c1ccc(F)c(S(=O)(=O)N2CCN(c3ccccn3)CC2)c1`, the AC35 was 18.2 µM.

With `C[C@@H]1CN([C@@H](C)CO)C(=O)Cc2cc(NS(=O)(=O)c3cccs3)ccc2O[C@H]1CN(C)Cc1ccc(Cl)c(Cl)c1`, the AC35 was 12.3 µM.

As to `OC[C@H]1[C@@H](c2ccc(C#CC3CCCC3)cc2)[C@@H]2CN(CCC(F)(F)F)CCCCN12`, the AC35 was 18 µM.

On to `C[C@@H]1CN([C@@H](C)CO)C(=O)c2cccc(NS(=O)(=O)c3ccccc3)c2O[C@@H]1CN(C)Cc1ccc(C(=O)Nc2ccccc2N)cc1`, for which the AC35 was 11.9 µM.

With `N#CC1C=Cc2c(ccc3ccccc23)N1C(=O)c1ccccc1` (stereo not given), the AC35 is 1.45 µM.

In the case of `COC1C(O)C(C)OC(OC2CCC3(C)C(CCC4C3C(O)CC3(C)C(C5=CC(=O)OC5)CCC43O)C2)C1O` (stereo not given), the AC35 was 0.699 µM.

For the molecule `O=C(/C=C/c1cc(Br)ccc1O)c1ccco1`, the AC35 was 16.7 µM.

Regarding `Oc1c(Cl)cc(Cl)c2cccnc12`, the AC35 is 20.7 µM.

For the molecule `C=C1C(=O)OC2C1CCC(C)C1C=CC(=O)C12C` (stereo not given), the AC35 is 13.8 µM.

As for `CN(C)c1ccc2c(c1)[C@@H]1C[C@@H](CC(=O)NCc3ccc(Oc4ccccc4)cc3)O[C@H](CO)[C@@H]1O2`, the AC35 was 14.3 µM.

On to `O=C1c2ccccc2C(=O)c2cc(N3CCCCC3)ccc21`, for which the AC35 was 23.3 µM.

`Nc1nc(N)c(-c2cccc(C(F)(F)F)c2)c(Cc2cccc(C(F)(F)F)c2)n1`: the AC35 was 4.27 µM.

For `CC1(C)N=C(N)N=C(N)N1c1ccc(OCCCOc2ccccc2)c(Cl)c1`, the AC35 was 4.91 µM.

Turning to `Cc1ccc(OCCNC(=O)c2cccc(S(=O)(=O)NCc3ccccc3)c2)cc1`, the AC35 was 6.35 µM.

Consider `CO[C@H]1CN(C)C(=O)c2cc(NC(=O)NC(C)C)ccc2OC[C@H](C)N(Cc2ccc(-c3ccccn3)cc2)C[C@@H]1C`, for which the AC35 was 20.8 µM.

As for `C[C@@H]1CN([C@@H](C)CO)C(=O)Cc2cc(NC(=O)C3CCCCC3)ccc2O[C@H]1CN(C)Cc1ccc(C(=O)Nc2ccccc2N)cc1`, the AC35 was 15.6 µM.

On to `C[C@@H]1CN([C@@H](C)CO)C(=O)c2cc(NS(=O)(=O)c3ccccc3)ccc2O[C@@H]1CN(C)Cc1ccc(C(=O)Nc2ccccc2N)cc1`, for which the AC35 was 10.2 µM.

In the case of `O=C(Nc1ccc2c(c1)OCO2)N1C[C@@H]2N[C@H](C1)C2c1ccc(C=Cc2ccccc2)cc1` (stereo not given in full), the AC35 was 12.8 µM.

Take `CC(C)(C)[S@](=O)N1Cc2cc(C(=O)NCC(F)(F)F)nc(-c3cccc(-c4cccc(F)c4)c3)c2[C@@H]1CCO`: the AC35 is 16.5 µM.

For `O=C(O)c1ccccc1C(=O)Nc1ccc(Oc2ccc3ccccc3c2)cc1`, the AC35 is 9.26 µM.

Regarding `O=C(N/N=C/c1cnc(N2CCCCC2)s1)c1ccc(C(F)(F)F)cc1`, the AC35 is 20.9 µM.

Regarding `C[C@@H]1CN([C@@H](C)CO)S(=O)(=O)c2ccc(C#CC(C)(C)O)cc2O[C@H]1CN(C)Cc1ccc(-c2ccccc2)cc1`, the AC35 was 3.55 µM.

Turning to `Nc1sc(-c2ccccc2)cc1-c1n[nH]c(=S)n1C1CCCCC1`, the AC35 is 4.99 µM.

As for `c1ccc(Nc2nnc(-c3ccc4c(c3)OCO4)o2)cc1`, the AC35 was 12 µM.

In the case of `CCCc1cc(=O)oc2c3c(c4c(c12)OC(C)(C)C=C4)OC(C)C(C)C3O` (stereo not given), the AC35 is 22.6 µM.

Turning to `C[C@]12CC[C@H](O)C[C@H]1CC[C@@H]1[C@@H]2CC[C@]2(C)[C@@H](C3=CC(=O)OC3)CC[C@]12O`, the AC35 is 2.11 µM.

With `C[C@H](CO)N1C[C@H](C)[C@H](CN(C)Cc2ccc(C(=O)Nc3ccccc3N)cc2)Oc2ccc(N(C)C)cc2CC1=O`, the AC35 was 6.82 µM.

`O=C1c2ccccc2C(=O)N1CCCCNc1ccccc1`: the AC35 was 5.25 µM.

Take `CC(C)CC#Cc1ccc([C@@H]2[C@@H](CO)N3CCCCN(S(=O)(=O)c4ccc(F)cc4)C[C@H]23)cc1`: the AC35 is 13.2 µM.

Regarding `CCOc1ccc(OCc2ccc(C(=O)NN=Cc3ccc[nH]3)cc2)cc1`, the AC35 is 0.504 µM.

`C[C@]12CCC3C(CCC4=CC(O)CC[C@@]43/C=N/O)C1(O)CCC2C1=CC(=O)OC1` (stereo not given in full): the AC35 is 1.82 µM.

Consider `Cc1ccc(/C=N/Nc2ccc3ccccc3n2)o1`, for which the AC35 is 18.4 µM.

With `C[C@@H]1CN([C@@H](C)CO)C(=O)c2cc(N(C)C)ccc2O[C@H]1CN(C)Cc1ccc(C(=O)Nc2ccccc2N)cc1`, the AC35 is 22 µM.

For `COc1ccc(OC)c(-c2nnc3n2N=C(c2ccc(OC)c(OC4CCCC4)c2)CS3)c1`, the AC35 was 3.81 µM.

For the molecule `N#CC1=C(N)Oc2cc(N)ccc2C1c1cccc(F)c1` (stereo not given), the AC35 was 4.98 µM.

In the case of `Cn1ccc2cc(-c3ccc4ncnc(NCc5cccs5)c4c3)ccc21`, the AC35 is 5.67 µM.

Take `COc1ccc(OC)c(Cc2cnc3nc(N)nc(N)c3c2C)c1`: the AC35 is 0.0778 µM.

As to `CN1C(=O)c2cc(NC(=O)c3ccc(Cl)cc3)ccc2OC[C@@H]2O[C@@H](CC(=O)NCc3cccc(F)c3)CC[C@H]21`, the AC35 was 5.21 µM.

Consider `C[C@H]1CN([C@@H](C)CO)S(=O)(=O)c2ccc(C#CC(C)(C)O)cc2O[C@@H]1CN(C)Cc1ccc(-c2ccccc2)cc1`, for which the AC35 is 0.414 µM.

As for `COc1ccccc1NC(=O)N1CCCCN2[C@H](CO)[C@H](c3ccc(-c4cccc(C)c4)cc3)[C@H]2C1`, the AC35 is 10.9 µM.

For `Cc1[nH][nH]c(=O)c1C(c1c(C)[nH][nH]c1=O)c1cn(Cc2ccc(Cl)c(Cl)c2)c2ccccc12`, the AC35 is 11.3 µM.

In the case of `CC(=O)OC1CC(OC2C(O)CC(OC3C(O)CC(OC4CCC5(C)C(CCC6C5CCC5(C)C(C7=CC(=O)OC7)C(O)CC65O)C4)OC3C)OC2C)OC(C)C1OC1OC(CO)C(O)C(O)C1O` (stereo not given), the AC35 is 2.35 µM.

Consider `COC(=O)C1=C(C)N(Cc2cccc(C(F)(F)F)c2)C(=NCc2ccc(OC)cc2)NC1c1cccc(F)c1` (stereo not given), for which the AC35 was 10.9 µM.

`CCN1C/C(=C/c2ccc(N3CCOCC3)cc2)C(=O)/C(=C/c2ccc(N3CCOCC3)cc2)C1`: the AC35 is 5.92 µM.

For the molecule `C[C@@H]1CN([C@@H](C)CO)C(=O)c2cccc(NC(=O)Nc3cccc4ccccc34)c2O[C@@H]1CN(C)Cc1ccc(C(=O)Nc2ccccc2N)cc1`, the AC35 was 10.8 µM.

Turning to `CCC1=Nc2cc(C(=O)NCC3CCCO3)ccc2Sc2ccc(Br)cc21` (stereo not given), the AC35 is 6.83 µM.

`CC[C@@H]1C[C@H]2CC[C@H](O2)[C@H](C)C(=O)O[C@@H](C)C[C@@H]2CC[C@@H](O2)[C@@H](C)C(=O)O[C@H](C)C[C@H]2CC[C@H](O2)[C@H](C)C(=O)O[C@@H](C)C[C@@H]2CC[C@@H](O2)[C@@H](C)C(=O)O1`: the AC35 is 0.0639 µM.

`O=C(Nc1ccc(F)cc1)N1CCCCN2[C@@H](CO)[C@H](c3ccc(C4=CCCCC4)cc3)[C@@H]2C1`: the AC35 is 22.4 µM.

As for `COc1cccc(OC)c1C(=O)Nc1cc(C)nn1-c1nc2ccccc2[nH]1`, the AC35 is 18.2 µM.

As to `NC(Cc1ccc(C(F)(F)F)cc1)c1csc(NC(=O)Nc2ccccc2Cc2ccccc2)n1` (stereo not given), the AC35 is 12.7 µM.

In the case of `Nc1ncn([C@@H]2O[C@H](CO)[C@@H](O)[C@H]2O)c(=O)n1`, the AC35 was 11.7 µM.

As for `COc1ccc(C(CCNCc2ccc(OC(C)C)cc2)C(C)C)cc1` (stereo not given), the AC35 is 21.8 µM.

With `Cc1cc(-c2nc3cc(F)ccc3s2)ccc1N`, the AC35 is 14.2 µM.

With `CCCNC(=O)N1[C@H](C#N)[C@H](c2ccc(C#Cc3cccc(F)c3)cc2)[C@H]1CO`, the AC35 is 16.1 µM.

For the molecule `Cc1ccc2c(=O)n3c(nc2c1)C(Cc1ccc(O)cc1)NC(=O)c1cc2ccccc2cc1-3` (stereo not given), the AC35 is 9.76 µM.

As to `C[C@@H]1CCCCO[C@H](CN(C)Cc2ccc(C(=O)Nc3ccccc3N)cc2)[C@@H](C)CN([C@H](C)CO)C(=O)c2cc(NS(=O)(=O)c3ccc(F)cc3)ccc2O1`, the AC35 is 12.9 µM.

Consider `O=C1NC(=S)NC(=O)C1=Cc1cccn1-c1ccc(O)cc1`, for which the AC35 is 22.2 µM.

In the case of `COC(=O)C[C@@H]1CC[C@@H]2[C@H](COc3ccc(NC(=O)c4ccc(C(F)(F)F)cc4)cc3C(=O)N2C)O1`, the AC35 is 9.91 µM.

With `O=C(c1nnsc1S(=O)c1ccc(Cl)cc1)N1CCOCC1` (stereo not given), the AC35 was 21.9 µM.

`COC(=O)C[C@H]1CC[C@@H]2[C@H](COc3ccc(NC(=O)Nc4cccc(Cl)c4)cc3C(=O)N2C)O1`: the AC35 was 15 µM.

On to `CN(C)c1ccc(-c2ccnc3c2CC(C)(C(=O)NCc2ccco2)O3)cc1` (stereo not given), for which the AC35 is 10.4 µM.

For `Oc1[nH]c2ccc(Br)cc2c1N=NC(=S)N1CCOCC1`, the AC35 was 2.87 µM.

Consider `COc1cccc(CN2CCC2(C)C(=O)Nc2cccc3cccnc23)c1F` (stereo not given), for which the AC35 is 14.5 µM.

As for `C[C@@H]1CCCCO[C@H](CN(C)Cc2ccc(C(=O)Nc3ccccc3N)cc2)[C@@H](C)CN([C@H](C)CO)C(=O)c2cc(NS(=O)(=O)c3ccc(Cl)cc3)ccc2O1`, the AC35 is 16.2 µM.

As to `CCc1ccc2oc(C(=O)N3CCN(c4ccccc4OC)CC3)cc(=O)c2c1`, the AC35 was 12.6 µM.

For `COc1ccc(C2=Nn3c([n+](C)c4ccccc43)SC2)cc1`, the AC35 is 19.6 µM.

With `O=C(N/N=C/c1ccc[nH]1)c1cc(-c2ccc(Cl)cc2)nc2ccccc12`, the AC35 is 15.2 µM.

`CN(C)c1ccc(N=Nc2nc3ccccc3n2C)cc1`: the AC35 was 13.6 µM.

In the case of `CN(c1ccc(NC(=O)CCc2c[nH]c3ccccc23)cc1)c1ccccn1`, the AC35 was 8.74 µM.

Regarding `COc1ccc(S(=O)(=O)N2CC[C@@H]3[C@@H](CO)Nc4ccc(-c5ccc(C#N)cc5)cc4[C@@H]32)cc1`, the AC35 is 2.52 µM.

As for `CCOc1cc(/C=N/Nc2cc(C)nc(-n3nc(C)cc3C)n2)ccc1O`, the AC35 was 7.76 µM.

As for `CCc1ccc(S(=O)(=O)c2ccc(-n3nc(C)cc3N)cc2)cc1`, the AC35 was 19.4 µM.

Consider `N#C[C@H]1[C@H](c2ccc(-c3ccccc3F)cc2)[C@@H](CO)N1C(=O)c1ccccn1`, for which the AC35 is 13.9 µM.

With `O=c1[nH]c(=O)n([C@H]2C[C@H](O)[C@@H](CO)O2)cc1F`, the AC35 was 0.282 µM.

On to `CCN1/C(=C/C=C/c2oc3ccc(-c4ccccc4)cc3[n+]2CC)Oc2ccc(-c3ccccc3)cc21`, for which the AC35 is 2.39 µM.

For the molecule `Cc1c(Cc2ccc3c(c2)OCO3)sc(NC(=O)C(C)(C)C)c1C#N`, the AC35 was 13.2 µM.

With `CCc1cccc2c(C(=O)CN3C(=O)NC4(CCCCC4)C3=O)c[nH]c12`, the AC35 is 4.29 µM.

Turning to `Cc1ccc(S(=O)(=O)Nc2ccc3c(c2)C(=O)N([C@@H](C)CO)C[C@H](C)[C@@H](CN(C)Cc2ccc(C(F)(F)F)cc2)OCCCC[C@@H](C)O3)cc1`, the AC35 is 11.8 µM.

In the case of `Nc1nc(=S)c2[nH]cnc2[nH]1`, the AC35 is 1.54 µM.

In the case of `COc1ccc(C(=O)NCCNc2nc3cc(C)cc(C)c3cc2C#N)c(OC)c1`, the AC35 is 15.9 µM.
